Molecular target: T1, hITK enzyme (FLAG-tagged full-length hITK) (Homo sapiens, UniProt Q08881)
T1 construct: strongly expressing FLAG-tagged full-length hITK in Sf9 cells; FLAG; made in house; host or cells: Sf9 insect cells (ITK); Escherichia coli (GST-SLP76 substrate)
T1 sequence (Q08881 1-620): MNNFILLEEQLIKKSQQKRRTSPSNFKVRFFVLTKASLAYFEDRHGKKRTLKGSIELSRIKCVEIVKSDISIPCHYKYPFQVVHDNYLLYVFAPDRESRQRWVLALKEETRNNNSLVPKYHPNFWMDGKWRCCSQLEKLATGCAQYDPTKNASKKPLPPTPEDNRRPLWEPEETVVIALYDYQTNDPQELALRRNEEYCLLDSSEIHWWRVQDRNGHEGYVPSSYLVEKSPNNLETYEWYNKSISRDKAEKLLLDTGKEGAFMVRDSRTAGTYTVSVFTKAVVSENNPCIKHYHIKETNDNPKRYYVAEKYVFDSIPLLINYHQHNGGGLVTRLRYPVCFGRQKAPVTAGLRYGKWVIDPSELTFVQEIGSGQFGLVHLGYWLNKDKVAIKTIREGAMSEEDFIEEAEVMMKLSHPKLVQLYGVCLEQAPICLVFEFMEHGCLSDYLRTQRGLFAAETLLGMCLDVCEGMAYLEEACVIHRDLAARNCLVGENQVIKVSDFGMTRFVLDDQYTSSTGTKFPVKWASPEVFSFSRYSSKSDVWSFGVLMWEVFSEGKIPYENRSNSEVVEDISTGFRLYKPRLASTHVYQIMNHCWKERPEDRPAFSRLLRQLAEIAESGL
Experiment: ITK inhibitory activity (HTRF kinase assay, biotinylated GST-SLP76 substrate)
Assay type: biochemical
Settings: IC50 calculated from the 2 test compound concentrations sandwiching 50% ITK inhibitory rate
Procedure, shortened: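 Sf9-expressed hITK (50 ng/mL enzyme solution) reacted 10 min at RT in MOPS pH 7.0, 10 mmol/L MgCl2, 1 mmol/L DTT with E. coli SLP76 aa95–175 substrate; substrate solution held 100 µmol/L ATP (6 µmol/L for selected compounds). HTRF 665/620 ratio, blank-corrected; IC50 interpolated between two concentrations bracketing 50% inhibition.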

Compound	IC50
COC1(C)CCN(c2ccc3cc(-c4n[nH]c5c4CCC(C)(C)C5)[nH]c3c2)C1=O (stereo not drawn) [Example 243]	24 nM
CC1(C)CCc2c(-c3cc4ccc(N5CCC(C)(O)C5=O)cc4[nH]3)n[nH]c2C1 (stereo not drawn) [Example 244]	23 nM
CC1(C)CCc2c(-c3cc4ccc(N(CCO)C(=O)C(O)C5CCCOC5)cc4[nH]3)n[nH]c2C1 (stereo not drawn) [Example 245]	10 nM
CC1(C)CCc2c(-c3cc4ccc(N(CCO)C(=O)C(O)C5CCCOC5)cc4[nH]3)n[nH]c2C1 (stereo not drawn) [Example 246]	7 nM
CC(C)CC(=O)N(CCO)c1ccc2cc(-c3n[nH]c4c3CCC(C)(C)C4)[nH]c2c1 [Example 247]	4 nM
CC1(C)CCc2c(-c3cc4ccc(N(CCO)C(=O)[C@H]5CC[C@@H](O)CC5)cc4[nH]3)n[nH]c2C1 [Example 248]	2 nM
CC1(C)CCc2c(-c3cc4ccc(N(CCO)C(=O)CC5CCOCC5)cc4[nH]3)n[nH]c2C1 [Example 249]	7 nM
CC1(C)CCc2c(-c3cc4ccc(N5CCC(C6CCCCC6)C5=O)cc4[nH]3)n[nH]c2C1 (stereo not drawn) [Example 250]	139 nM
CC1(C)CCc2c(-c3cc4ccc(N5CCC(CO)(C6CCCCC6)C5=O)cc4[nH]3)n[nH]c2C1 (stereo not drawn) [Example 251]	34 nM
C[C@H](C(=O)N(CCO)c1ccc2cc(-c3n[nH]c4c3CCC(C)(C)C4)[nH]c2c1)N1CCOCC1 [Example 252]	11 nM
CC1(C)CCc2c(-c3cc4ccc(N(CCO)C(=O)CN5CCCCC5=O)cc4[nH]3)n[nH]c2C1 [Example 253]	2 nM
CC1(C)CCc2c(-c3cc4ccc(N(CCO)C(=O)CN5CCOCC5)cc4[nH]3)n[nH]c2C1 [Example 254]	5 nM
C[C@@H](C(=O)N(CCO)c1ccc2cc(-c3n[nH]c4c3CCC(C)(C)C4)[nH]c2c1)N1CCOCC1 [Example 255]	3 nM
CC1(C)CCc2c(-c3cc4ccc(N(CCO)C(=O)CN5CCCCCC5=O)cc4[nH]3)n[nH]c2C1 [Example 256]	1 nM
CC1CCN(CC(=O)N(CCO)c2ccc3cc(-c4n[nH]c5c4CCC(C)(C)C5)[nH]c3c2)C1=O (stereo not drawn) [Example 257]	1 nM
CCN(c1ccc2cc(-c3n[nH]c4c3CCC(C)(C)C4)[nH]c2c1)C(=O)[C@H]1CC[C@@H](O)CC1 [Example 258]	4 nM
COCCN(c1ccc2cc(-c3n[nH]c4c3CCC(C)(C)C4)[nH]c2c1)C(=O)[C@H]1CC[C@@H](O)CC1 [Example 259]	3 nM
CCN(C(=O)CN1CCOC(C)C1=O)c1ccc2cc(-c3n[nH]c4c3CCC(C)(C)C4)[nH]c2c1 (stereo not drawn) [Example 260]	< 1 nM
COCCN(C(=O)CN1C(=O)COC[C@H]1C)c1ccc2cc(-c3n[nH]c4c3CCC(C)(C)C4)[nH]c2c1 [Example 262]	3 nM
CCN(C(=O)C(C)C1CCOCC1)c1ccc2cc(-c3n[nH]c4c3CCC(C)(C)C4)[nH]c2c1 (stereo not drawn) [Example 263]	7 nM
COCCN(C(=O)C(C)C1CCOCC1)c1ccc2cc(-c3n[nH]c4c3CCC(C)(C)C4)[nH]c2c1 (stereo not drawn) [Example 264]	10 nM

Compound	IC50
COCCN(C(=O)CN1CCOC(C)C1=O)c1ccc2cc(-c3n[nH]c4c3CCC(C)(C)C4)[nH]c2c1 (stereo not drawn) [Example 265]	2 nM
CCN(c1ccc2cc(-c3n[nH]c4c3CCC(C)(C)C4)[nH]c2c1)C(=O)[C@H]1CC[C@@H](OC)CC1 [Example 266]	7 nM
COCCN(c1ccc2cc(-c3n[nH]c4c3CCC(C)(C)C4)[nH]c2c1)C(=O)[C@H]1CC[C@@H](OC)CC1 [Example 267]	5 nM
CCN(C(=O)CC1CCOCC1)c1ccc2cc(-c3n[nH]c4c3CCC(C)(C)C4)[nH]c2c1 [Example 268]	5 nM
COCCN(C(=O)CC1CCOCC1)c1ccc2cc(-c3n[nH]c4c3CCC(C)(C)C4)[nH]c2c1 [Example 269]	6 nM
CCN(C(=O)CN1CCCCCC1=O)c1ccc2cc(-c3n[nH]c4c3CCC(C)(C)C4)[nH]c2c1 [Example 270]	2 nM
CCN(C(=O)CN1C(=O)COC[C@@H]1C)c1ccc2cc(-c3n[nH]c4c3CCC(C)(C)C4)[nH]c2c1 [Example 271]	3 nM
COCCN(C(=O)CN1C(=O)COC[C@@H]1C)c1ccc2cc(-c3n[nH]c4c3CCC(C)(C)C4)[nH]c2c1 [Example 272]	3 nM
CCN(C(=O)CC1CCC(OC)CC1)c1ccc2cc(-c3n[nH]c4c3CCC(C)(C)C4)[nH]c2c1 (stereo not drawn) [Example 273]	11 nM
COCCN(C(=O)CC1CCC(OC)CC1)c1ccc2cc(-c3n[nH]c4c3CCC(C)(C)C4)[nH]c2c1 (stereo not drawn) [Example 274]	9 nM
CCN(C(=O)[C@H](C)N1CCOCC1)c1ccc2cc(-c3n[nH]c4c3CCC(C)(C)C4)[nH]c2c1 [Example 275]	2 nM
COCCN(C(=O)[C@H](C)N1CCOCC1)c1ccc2cc(-c3n[nH]c4c3CCC(C)(C)C4)[nH]c2c1 [Example 276]	4 nM
CCN(C(=O)CN1CC(C)(C)OCC1=O)c1ccc2cc(-c3n[nH]c4c3CCC(C)(C)C4)[nH]c2c1 [Example 277]	1 nM
COCCN(C(=O)CN1CC(C)(C)OCC1=O)c1ccc2cc(-c3n[nH]c4c3CCC(C)(C)C4)[nH]c2c1 [Example 278]	1 nM
CCN(C(=O)CN1C[C@H](C)OCC1=O)c1ccc2cc(-c3n[nH]c4c3CCC(C)(C)C4)[nH]c2c1 [Example 279]	< 1 nM
COCCN(C(=O)CN1C[C@H](C)OCC1=O)c1ccc2cc(-c3n[nH]c4c3CCC(C)(C)C4)[nH]c2c1 [Example 280]	2 nM
COCCN(C(=O)CN1CCCCCC1=O)c1ccc2cc(-c3n[nH]c4c3CCC(C)(C)C4)[nH]c2c1 [Example 281]	1 nM
CCN(C(=O)CN1C[C@@H](C)OCC1=O)c1ccc2cc(-c3n[nH]c4c3CCC(C)(C)C4)[nH]c2c1 [Example 282]	2 nM
COCCN(C(=O)CN1C[C@@H](C)OCC1=O)c1ccc2cc(-c3n[nH]c4c3CCC(C)(C)C4)[nH]c2c1 [Example 283]	2 nM
CCN(C(=O)CN1CCC(C)(C)C1=O)c1ccc2cc(-c3n[nH]c4c3CCC(C)(C)C4)[nH]c2c1 [Example 284]	1 nM
COCCN(C(=O)CN1CCC(C)(C)C1=O)c1ccc2cc(-c3n[nH]c4c3CCC(C)(C)C4)[nH]c2c1 [Example 285]	2 nM

Compound	IC50
COCCN(C(=O)CN1CCOCC1=O)c1ccc2cc(-c3n[nH]c4c3CCC(C)(C)C4)[nH]c2c1 [Example 286]	2 nM
COCCN(C(=O)CN1CCCCC1=O)c1ccc2cc(-c3n[nH]c4c3CCC(C)(C)C4)[nH]c2c1 [Example 287]	1 nM
CCN(C(=O)CN1CCOCC1=O)c1ccc2cc(-c3n[nH]c4c3CCC(C)(C)C4)[nH]c2c1 [Example 288]	1 nM
CCN(C(=O)CN1CCCCC1=O)c1ccc2cc(-c3n[nH]c4c3CCC(C)(C)C4)[nH]c2c1 [Example 289]	< 1 nM
CCN(C(=O)CC(C)(C)O)c1ccc2cc(-c3n[nH]c4c3CCC(C)(C)C4)[nH]c2c1 [Example 290]	8 nM
CCN(C(=O)CN(C)C(C)=O)c1ccc2cc(-c3n[nH]c4c3CCC(C)(C)C4)[nH]c2c1 [Example 291]	1 nM
CCC(=O)N(C)CC(=O)N(CC)c1ccc2cc(-c3n[nH]c4c3CCC(C)(C)C4)[nH]c2c1 [Example 292]	2 nM
CC1(C)CCc2c(-c3cc4cc(C(=O)Nc5ccccc5)ccc4[nH]3)n[nH]c2C1 [Example 293]	263 nM
CNC(=O)c1ccc2[nH]c(-c3n[nH]c4c3CCC(C)(C)C4)cc2c1 [Example 294]	51 nM
CN(C(=O)c1ccc2[nH]c(-c3n[nH]c4c3CCC(C)(C)C4)cc2c1)c1ccccc1 [Example 295]	138 nM
CN(C)C(=O)c1ccc2[nH]c(-c3n[nH]c4c3CCC(C)(C)C4)cc2c1 [Example 296]	58 nM
CC1(C)CCc2c(-c3cc4cc(C(N)=O)ccc4[nH]3)n[nH]c2C1 [Example 297]	48 nM
CC1(C)CCc2c(-c3cc4cc(C(=O)N5CCOCC5)ccc4[nH]3)n[nH]c2C1 [Example 298]	44 nM
CC(NC(=O)c1ccc2[nH]c(-c3n[nH]c4c3CCC(C)(C)C4)cc2c1)C(C)(C)C (stereo not drawn) [Example 299]	74 nM
CC(N(C)C(=O)c1ccc2[nH]c(-c3n[nH]c4c3CCC(C)(C)C4)cc2c1)C(C)(C)C (stereo not drawn) [Example 300]	221 nM
CC1(C)CCc2c(-c3cc4cc(C(=O)N5CCCC(O)C5)ccc4[nH]3)n[nH]c2C1 (stereo not drawn) [Example 301]	37 nM
CC1(C)CCc2c(-c3cc4cc(C(=O)N5CCC(O)CC5)ccc4[nH]3)n[nH]c2C1 [Example 302]	39 nM
CC1(C)CCc2c(-c3cc4cc(C(=O)NCCO)ccc4[nH]3)n[nH]c2C1 [Example 303]	33 nM
CN(CCO)C(=O)c1ccc2[nH]c(-c3n[nH]c4c3CCC(C)(C)C4)cc2c1 [Example 304]	27 nM
COC(=O)CNC(=O)c1ccc2[nH]c(-c3n[nH]c4c3CCC(C)(C)C4)cc2c1 [Example 305]	13 nM
CC1(C)CCc2c(-c3cc4cc(C(=O)NCC(=O)O)ccc4[nH]3)n[nH]c2C1 [Example 306]	27 nM
